Assay results published in PubChem BioAssay (NCI).
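Tested at 5 concentrations; 48 h exposure; 96-well plates; endpoints linearly interpolated, else capped at highest concentration. Abbreviation: GI50, concentration required for 50% inhibition of growth. TGI: concentration producing complete growth inhibition.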

Assays:
Experiment in all cases: DTP human tumour cell line panel, 48 h
A498 renal = test system: A498 renal
EKVX NSCLC = test system: EKVX NSCLC
HL-60(TB) leukemia = test system: HL-60(TB) leukemia
MALME-3M melanoma = test system: MALME-3M melanoma
MDA-MB-231 breast = test system: MDA-MB-231 breast
NCI-H226 lung = test system: NCI-H226 lung
OVCAR-3 ovarian = test system: OVCAR-3 ovarian
SF-295 CNS = test system: SF-295 CNS
UO-31 renal = test system: UO-31 renal
HOP-92 NSCLC = test system: HOP-92 NSCLC

Compound	GI50 (A498 renal) [µM]	TGI (A498 renal) [µM]	GI50 (EKVX NSCLC) [µM]	TGI (EKVX NSCLC) [µM]	GI50 (HL-60(TB) leukemia) [µM]	GI50 (MALME-3M melanoma) [µM]	TGI (MALME-3M melanoma) [µM]	GI50 (MDA-MB-231 breast) [µM]	TGI (MDA-MB-231 breast) [µM]	GI50 (NCI-H226 lung) [µM]	TGI (NCI-H226 lung) [µM]	GI50 (OVCAR-3 ovarian) [µM]	TGI (OVCAR-3 ovarian) [µM]	GI50 (SF-295 CNS) [µM]	TGI (SF-295 CNS) [µM]	GI50 (UO-31 renal) [µM]	TGI (UO-31 renal) [µM]	TGI (HL-60(TB) leukemia) [µM]	GI50 (HOP-92 NSCLC) [µM]	TGI (HOP-92 NSCLC) [µM]
COc1cc(OC)c(/C=C/S(=O)(=O)Cc2cnc(OC)c(N)c2)c(OC)c1	< 0.01	> 100	0.223	> 100	< 0.0167	> 100	> 100	< 0.0276	> 100	> 40.1	> 100	0.0264	> 100	< 0.0133	> 100	< 0.0251	> 100			
CCOC(=O)C(Cc1c[nH]c2ccc(N)cc12)(NC(C)=O)C(=O)OCC			> 1000	> 1000	758	> 1000	> 1000	> 1000	> 1000	> 1000	> 1000	> 1000	> 1000	> 1000	> 1000	> 1000	> 1000	> 1000	> 1000	> 1000
CN1CCN(CCCN)CC1		> 100		> 100			> 100		> 100		> 100		> 100		> 100		> 100	> 100		
CC(=O)Nc1ccc(C(=O)NN2C(=O)C(Cl)C2c2ccc(Cl)cc2)cc1 (stereo unspecified)				> 100			> 65.8		70.3		> 92.1		52.3		44.7		> 100	> 100		82.1
CC(O)c1cccc(NCc2c3ccccc3c(=O)n3c2oc2ccccc23)c1 (stereo unspecified)	1.61	4.93	3.87	19.3	> 100			13.3	47.9			9.25	85.2	2.43	14.5	3.58	28.1	> 100	5.4	44.3
O=c1c2c(nc3n1CCS3)[nH]c1ccccc12	89.5	> 100	> 100	> 100		> 100	> 100	33.4	> 100	70.3	> 100	95.4	> 100	> 100	> 100	94.3	> 100		> 100	> 100
CCC1(CC)C(=O)OC(=O)C1(CC)CC		> 100		> 100					> 100				> 100		> 100		> 100	> 100		
O=c1c(Oc2ccc(F)cc2F)cc2cnc(NC3CCOCC3)nc2n1C1CCS(=O)(=O)CC1	> 25	> 25			> 25	> 25	> 25	> 25	> 25	> 25	> 25	> 25	> 25	> 25	> 25	> 25	> 25	> 25	> 25	> 25
NOCC(=O)O	> 100	> 100	> 100	> 100	32.2	> 100	> 100	53.2	> 100	> 100	> 100	> 100	> 100	> 100	> 100	> 100	> 100	> 100		
C=CCC(N[C@H](CO)c1ccccc1)c1ccc2ccccc2n1 (stereo partly specified)	29.3	> 100	> 100	> 100	48.7	> 100	> 100	> 100	> 100	> 100	> 100	> 100	> 100	> 100	> 100	> 100	> 100	> 100		
CC12OC(c3ccccc3)=CC(c3ccc(Cl)cc3)=C1C(c1ccccc1)=CC2=O (stereo unspecified)	> 100	> 100	> 100	> 100	23.2	> 100	> 100	67.2	> 100	68.1	> 100	80	> 100	25	> 100	> 100	> 100	77.7		
CC(C)c1ccc(C(=O)Nc2nc3ccc(O)cc3s2)cc1	2.2	9.91	2.34	> 100	0.481	0.684	> 100	1.97	> 100	5.16	50.4	1.36	51.4			0.35	> 100	20.2	5.18	55
CC(=O)CC(=O)Nc1ccc2ccccc2c1		> 100		> 100			> 100		> 100		> 100		> 100		> 100			> 100		> 100
Cc1cc(I)cc(CN(C)CCCN2CCSCC2)c1O	26.4	51.3	29.4	> 100	18.8	23.2	44.6	27.8	92.3	39.5	> 100	29.7	> 100			26.4	> 100	36.6	14.6	47.4
CCN(CC)CCC(=O)NC1c2ccc(Cl)cc2Oc2c(C)cccc21 (stereo unspecified)				36.9					40.8				28.8		33.9		21.5	41.2		40.8
Nc1c(C(=O)c2ccc(Cl)cc2)sc(Nc2ccccc2)c1-c1nc2ccccc2s1	3.67	19.1	2	> 100	> 57.3	0.751	> 100	2.35	> 100	1.58	> 100			2.18	10.8	2.16	> 100	> 100	0.777	4.7
